Data set [1] in a line: Solubility in solvents. In kind it is physicochemical. The note with it: e.g. in ethanol or acetone. As to the method: Furthermore compositions which contain water as solvent (f) are preferred. The solubility of the phthalic acid derivatives of the Formula (I) in polar solvents is good.
4-hydroxyphthalic anhydride (6.70 g; 40.8 mmol), BHT (10 mg) and N-(11-bromoundecyl)-N-methyl acrylamide (13.00 g; 40.8 mmol) were dissolved in N,N-dimethylformamide (100 ml). Potassium carbonate (5.64 g; 40.8 mmol) was added. The yellow suspension was stirred at RT. Water (200 ml) was added to the reaction mixture after 20 d and the whole stirred for 1 h at RT. An oily white solid precipitated from the initially cloudy solution. The solvent was decanted off. The residue was dissolved in dilute aqueous Na2CO3 solution (5%; 100 ml). The milky/cloudy aqueous phase was washed with MtBE (5×100 ml). Diluted hydrochloric acid (2N, 100 ml) was added to the water phase (pH=1) and extraction with MtBE (8×100 ml) took place. The combined extracts were dried over Na2SO4, filtered and concentrated on the rotary evaporator. Chloroform (150 ml) was added to the residue and the whole stirred at RT. After 20 h the suspension was filtered. The filtration residue was washed with chloroform (50 ml) and discarded. The filtrate was concentrated on the rotary evaporator. The residue was dissolved in chloroform (50 ml). Acetonitrile (50 ml) was added. After 72 h storage at −18° C. the solvent was decanted off and the residue dried under a fine vacuum.

Data set [2] can be described thus: Hydrolysis stability of AAUPA in acidic solution, followed by 1H-NMR. Type of data set: physicochemical. Conditions: 5% AAUPA, 200 ppm BHT, 5% phosphoric acid d3, 10% D2O, 80% DMSO-d6; stored at 37° C., standing time 12 weeks. The procedure: A solution of 5% of the phthalic acid acrylamide AAUPA stabilized with 200 ppm 2,6-di-t-butyl-4-methylphenol, 5% phosphoric acid d3, 10% D2O and 80% DMSO-d6 was prepared, was stored at 37° C. and examined spectroscopically with ^1H-NMR. After a standing time of 12 weeks, no changes were able to be established in the ^1H-NMR spectrum.

For data set [3] the following is noted: in aqueous solutions; cited from earlier work.

Take `C=CC(=O)N(C)CCCCCCCCCCCOc1ccc(C(=O)O)c(C(=O)O)c1` [AAUPA, 4-[11-(acryloyl-methyl-amino)-undecyloxy]phthalic acid]: in data set [1], the solubility entry is given as “dissolves very well”. Also, the “changes in the 1H-NMR spectrum (hydrolysis stability)” value in data set [2] was “no changes”. On to `C=C(C)C(=O)OCCOC(=O)c1ccc2c(c1)C(=O)OC2=O` [Example 4-META], for which the “hydrolysis to 4-MET” value in data set [3] is “very quickly hydrolyzed”.
